The source of these data is patent publication US11390617B2, “Methods of treating non-Hodgkin lymphoma using 2-(2,6-dioxopiperidin-3-yl)-4-((2-fluoro-4-((3-morpholinoazetidin-1-yl)methyl)benzyl)amino)isoindoline-1,3-dione” (Celgene Corporation, priority 2019, dated 2022).

Some results are limits rather than exact numbers.

The test system of test [1] is RL follicular lymphoma xenograft tumors. The experiment in a line: RL (follicular lymphoma) xenograft model, alone and in combination with rituximab. The test is classed as in vivo, female SCID mice. The note with it: Compound 1 0.3 mg/kg oral, 5 days on 2 days off for 3 weeks, single agent. As to the method: (§1) Female 6- to 8-weeks-old CB17 SCID mice were obtained from Charles River Laboratories. Mice were housed in a barrier facility in micro-isolator cages at 10 animals per cage. Mice were fed with Harlan-Teklad LM-485 Mouse/Rat Sterilizable Diet and autoclaved water ad libitum and maintained on a 12 hours light-dark cycle. Animals were acclimatized to the animal housing facility for a period of 7 days before the beginning of the experiment. All animal studies were performed under protocols approved by Institutional Animal Care and Use Committees.
Suspensions of Compound 1 were pared in aqueous 0.5% Methyl Cellulose, 0.25% Tween 80 and 50 mM Citrate pH 3. […]
Tumor cells were injected subcutaneously in the flank region above the right hind legs of female CB17 SCID mice. […] Tumor volumes were determined before the initiation of treatment and were considered as the starting volumes. Tumors were measured twice a week for the duration of the study. The long and short axes of each tumor were measured using a digital caliper in millimeters. The tumor volumes were calculated using the formula: width^2×length/2. […]
Xenograft data are expressed as mean±SEM. […]
Xenograft study was conducted with female SCID mice bearing RL follicular lymphoma xenograft tumors. […] Tumors were measured twice a week using calipers and tumor volumes were calculated using the formula of W^2×L/2. […]

In test [2] the test system is SU-DHL-4 cell line. The experiment in a line: Cell proliferation and viability assay using SU-DHL-4 cell line (Cell Titer-Glo). The class given is cell-based. The note with it: Homo sapiens, SU-DHL-4, 120 hours. Here is the method:
The following exemplary assay uses a DLBCL cell line, for example, the SU-DHL-4 cell line (Deutsche Sammlung von Mikroorganismen und Zellkulturen GmbH [DSMZ]: catalogue number ACC-495) at 120 hours post-treatment. The seeding density for SU-DHL-4 can be optimized to ensure assay linearity in 1536-well plates.
Increasing concentrations (0.5 nM to […]) of Compounds 1, 2, and 3 were each spotted in a 20-point dilution fashion (unevenly spaced data points) via an acoustic dispenser (EDC ATS-100) into an empty 1536-well plate. The DMSO concentration was kept constant for a final assay concentration of 0.1% DMSO. Prior to testing, SU-DHL-4 cells were grown in RPMI-1640 (Roswell Park Memorial Institute-1640) medium with 10% FBS (fetal bovine serum: HyClone) and expanded in culture flasks to provide sufficient amounts of starting material. Cells were then diluted to 500 cells per well in a 5 μL volume, and added directly to the compound-spotted 1536-well plates. Cells were allowed to grow for 120 hours in 5% CO2 at 37° C. At the time when exposure of cells to compound began (t0), initial viable cell number was assessed via Cell Titer-Glo® Luminescent Cell Viability Assay at a 1 vol: 2 vol ratio according to manufacturer's instructions (Promega Corporation, Madison, Wis.) by quantifying the level of luminescence generated by adenosine-5′-triphosphate (ATP) present in viable cells. After 120 hours, cell viability of the treated cells was assessed via Cell Titer-Glo© and read for luminescence. All growth inhibition curves were processed and evaluated using Activity Base (IDBS, Alameda, Calif.). Cell viability IC50 values were calculated using a four parameter logistic model (sigmoidal dose-response model): y=(A+((B−A)/(1+((C/x)^D)))) wherein: A=YMin B=YMax C=EC50 D=Hill slope IC50=the concentration of the compound when Y=50% of DMSO control Y=cell viability measured as luminescence unit, and x=concentration of compound.
Background: Cellular ATP, detected with luciferase, serves as a proxy for viable cell number.

Test [3] deals with WSU-DLCL2 DLBCL xenograft tumors. The experiment in a line: WSU-DLCL2 (DLBCL) xenograft model. The test is classed as in vivo, female SCID mice. Conditions: 5 days on 2 days off for 3 weeks, single agent. Here is the method: as §1
Suspensions of Compound 1 were pared in aqueous 0.5% Methyl Cellulose, 0.25% Tween 80 and 50 mM Citrate pH 3. The formulations were homogenized using a Teflon pestle and mortar (Potter-Elvehjem tissue grinder). For multiday studies, the compound was freshly formulated every day. Compound 1 and vehicle were administered by oral gavage. Rituximab was diluted in 0.9% saline and administered intraperitoneally.
Tumor cells were injected subcutaneously in the flank region above the right hind legs of female CB17 SCID mice. When the tumor volumes reach to approximately 200 mm^3, mice bearing tumors of 150-300 mm^3 were randomly assigned to receive oral doses of vehicle, Compound 1, rituximab or combination of Compound 1 (5 days on and 2 days off for 3 weeks) and rituximab (twice a week) for the duration of the study. Tumor volumes were determined before the initiation of treatment and were considered as the starting volumes. Tumors were measured twice a week for the duration of the study. The long and short axes of each tumor were measured using a digital caliper in millimeters. The tumor volumes were calculated using the formula: width^2×length/2. The tumor volumes were expressed in cubic millimeters (mm^3).
Xenograft data are expressed as mean±SEM. Statistical analyses were performed using GraphPad Prism. […]
Xenograft study was conducted with female SCID mice bearing WSU-DLCL2 DLBCL xenograft tumors. […] Tumors were measured twice a week using calipers and tumor volumes were calculated using the formula of W^2×L/2. […]

What is called IC50 is the concentration needed to halve the response being measured. Read a high IC50 as weaker potency. Regarding `O=C1CC[C@H](N2C(=O)c3cccc(NCc4ccc(CN5CC(N6CCOCC6)C5)cc4F)c3C2=O)C(=O)N1` [Compound 1, (S)-2-(2,6-dioxopiperidin-3-yl)-4-((2-fluoro-4-((3-morpholinoazetidin-1-yl)methyl)benzyl)amino)isoindoline-1,3-dione], the tumor volume reduction stood at 36% in test [1], 74% in test [3] (Compound 1 1 mg/kg oral) and 86% in test [3] (Compound 1 3 mg/kg oral). In test [2], this compound had a half-inhibitory concentration (IC50) of less than 200 nM.
